According to patent US12415844B2, “BCMA specific VCAR compositions and methods for use” (Poseida Therapeutics, Inc., priority 2017, dated 2025):
Where two headings read alike, the source gives them in different places.

Assays:
cells [1] = assay: AP1903 amount needed in vitro for effective signaling of cells; format: cell-based; settings: equates to 10-100 nM
Protocol: The fixed dose of AP1903 for injection used, for example, may be 0.4 mg/kg intravenously infused over 2 hours. The amount of AP1903 needed in vitro for effective signaling of cells is 10-100 nM (1600 Da MW). This equates to […] or […]. Doses up to 1 mg/kg were well tolerated in the Phase I study of AP1903 described above. Therefore, 0.4 mg/kg may be a safe and effective dose of AP1903 for this Phase I study in combination with the therapeutic cells.

cells [2] = settings: cited from earlier work
[3] = cited from earlier work

CC[C@H](C(=O)N1CCCC[C@H]1C(=O)O[C@H](CCc1ccc(OC)c(OC)c1)c1cccc(OCC(=O)NCCNC(=O)COc2cccc([C@@H](CCc3ccc(OC)c(OC)c3)OC(=O)[C@@H]3CCCCN3C(=O)[C@@H](CC)c3cc(OC)c(OC)c(OC)c3)c2)c1)c1cc(OC)c(OC)c(OC)c1 (relative stereo) [AP1903, 2-Piperidinecarboxylic acid, 1-[(2S)-1-oxo-2-(3,4,5-trimethoxyphenyl)butyl]-, 1,2-ethanediylbis[imino(2-oxo-2,1-ethanediyl)oxy-3,1-phenylene[(1R)-3-(3,4-dimethoxyphenyl)propylidene]]ester, [2S-[1(R*),2R*[S*[S*[1(R*),2R*]]]]]-(9C1)]
amount needed for effective signaling, converted (1600 Da MW) (cells [1]): 16 to 160 µg/L | amount needed in vitro for effective signaling of cells (cells [2]): 10 to 100 nM | plasma levels versus dose ([3]; 0.01-1.0 mg/kg): directly proportional to dose | plasma level as % of maximal concentration ([3]; 0.5 hours post-dose): approximately 18% | plasma level as % of maximal concentration ([3]; 2 hours post-dose): ~7% | plasma level as % of maximal concentration ([3]; 10 hours post-dose): ~1% | well tolerated doses ([3]; Phase I study): up to 1 mg/kg | safety and tolerability ([3]; dose levels 0.01, 0.05, 0.1, 0.5 and 1.0 mg/kg IV over 2 hours): safe and well tolerated at all dose levels | pharmacokinetic profile ([3]; healthy volunteers): favorable pharmacokinetic profile | mean Cmax ([3]; single doses 0.01-1.0 mg/kg infused IV over 2 hours, healthy volunteers, plasma): 10 to 1275 ng/mL
